Experimental data published in article PMC7176092, “Development of the first in vivo GPR17 ligand through an iterative drug discovery pipeline: A novel disease-modifying strategy for multiple sclerosis” (PLoS ONE, 2020).
Values joined by “and” are separate entries in the source; they are usually repeats but may differ in a detail not shown here. Identical values can stand only once. Like-named read-outs stand apart in the source and are kept apart here.

What was measured:
[1] = molecular target: T1, ADR2B (Homo sapiens, UniProt P18089); experiment: Binding assay ADR2B; conditions: 100 nM
T1 construct: Eurofins Cerep (external service)
T1 sequence (P18089 1-450): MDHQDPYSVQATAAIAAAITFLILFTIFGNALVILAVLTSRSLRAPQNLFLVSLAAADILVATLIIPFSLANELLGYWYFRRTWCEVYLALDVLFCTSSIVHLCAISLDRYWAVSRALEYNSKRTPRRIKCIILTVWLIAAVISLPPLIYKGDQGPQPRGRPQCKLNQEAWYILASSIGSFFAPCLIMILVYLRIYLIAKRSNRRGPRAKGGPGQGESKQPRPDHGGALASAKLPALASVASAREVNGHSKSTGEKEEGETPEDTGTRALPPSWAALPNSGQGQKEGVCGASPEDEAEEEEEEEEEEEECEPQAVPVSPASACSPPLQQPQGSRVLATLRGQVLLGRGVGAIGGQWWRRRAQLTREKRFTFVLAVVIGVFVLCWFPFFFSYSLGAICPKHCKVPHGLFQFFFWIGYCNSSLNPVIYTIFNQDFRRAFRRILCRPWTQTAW

[2] = molecular target: T2, ADR1 (Homo sapiens, UniProt P08588); experiment: Binding assay ADR1 (reference atenolol); conditions: 100 nM
T2 construct: Eurofins Cerep (external service)

[3] = molecular target: T3, ADR2 (Homo sapiens, UniProt P07550); experiment: Binding assay ADR2 (reference ICI 118551); conditions: 100 nM
T3 construct: Eurofins Cerep (external service)

[4] = molecular target: T4, mGluR1 (Homo sapiens, UniProt Q13255); experiment: Binding assay mGluR1; conditions: 100 nM
T4 construct: Eurofins Cerep (external service)

[5] = molecular target: T5, CXCR2 (Homo sapiens, UniProt P25025); experiment: Binding assay CXCR2; conditions: 100 nM
T5 construct: Eurofins Cerep (external service)
T5 sequence (P25025 1-360): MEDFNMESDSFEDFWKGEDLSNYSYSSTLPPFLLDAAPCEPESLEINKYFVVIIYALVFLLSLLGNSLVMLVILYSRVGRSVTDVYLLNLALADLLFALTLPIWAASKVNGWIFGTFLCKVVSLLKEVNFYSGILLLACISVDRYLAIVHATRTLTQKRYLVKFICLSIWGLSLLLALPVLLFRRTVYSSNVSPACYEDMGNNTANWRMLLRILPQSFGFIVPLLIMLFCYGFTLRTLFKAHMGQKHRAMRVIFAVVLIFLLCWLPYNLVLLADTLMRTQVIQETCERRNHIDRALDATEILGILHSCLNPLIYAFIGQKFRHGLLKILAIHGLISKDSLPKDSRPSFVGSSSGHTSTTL

[6] = molecular target: T6, CCR1 (Homo sapiens, UniProt P32246); experiment: Binding assay CCR1; conditions: 100 nM
T6 construct: Eurofins Cerep (external service)
T6 sequence (P32246 1-355): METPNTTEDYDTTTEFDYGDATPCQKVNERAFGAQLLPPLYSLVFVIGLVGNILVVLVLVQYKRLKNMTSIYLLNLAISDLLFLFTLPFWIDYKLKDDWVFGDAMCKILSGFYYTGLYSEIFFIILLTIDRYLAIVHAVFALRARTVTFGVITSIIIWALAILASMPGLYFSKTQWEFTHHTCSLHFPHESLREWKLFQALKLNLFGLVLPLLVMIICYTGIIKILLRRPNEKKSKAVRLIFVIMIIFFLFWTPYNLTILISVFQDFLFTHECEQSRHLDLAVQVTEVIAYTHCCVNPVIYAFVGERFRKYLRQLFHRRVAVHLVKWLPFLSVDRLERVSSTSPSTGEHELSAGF

[7] = molecular target: T7, M1 (Homo sapiens, UniProt P11229); experiment: Binding assay M1; conditions: 100 nM
T7 construct: Eurofins Cerep (external service)
T7 sequence (P11229 1-460): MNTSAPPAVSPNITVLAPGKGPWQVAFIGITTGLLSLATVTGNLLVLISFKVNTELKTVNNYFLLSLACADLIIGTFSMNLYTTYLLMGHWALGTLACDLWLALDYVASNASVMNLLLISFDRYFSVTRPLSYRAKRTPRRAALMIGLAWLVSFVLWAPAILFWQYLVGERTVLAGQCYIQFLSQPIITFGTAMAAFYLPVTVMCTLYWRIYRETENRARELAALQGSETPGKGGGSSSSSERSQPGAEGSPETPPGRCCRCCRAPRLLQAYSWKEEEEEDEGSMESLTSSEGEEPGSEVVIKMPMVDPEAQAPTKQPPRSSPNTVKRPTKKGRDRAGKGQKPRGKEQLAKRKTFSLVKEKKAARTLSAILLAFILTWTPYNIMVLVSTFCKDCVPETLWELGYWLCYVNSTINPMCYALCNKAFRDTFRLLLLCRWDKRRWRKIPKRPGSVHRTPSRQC

[8] = molecular target: T8, M3 (Homo sapiens, UniProt P20309); experiment: Binding assay M3; conditions: 100 nM
T8 construct: Eurofins Cerep (external service)

[9] = system: P2Y; experiment: Binding assay P2Y; parameters: species or system human; conditions: 100 nM
[10] = molecular target: CCR8 (Homo sapiens, UniProt P51685); experiment: Cellular functional assay CCR8
[11] = mean of 2, read-out: % Of control specific binding, Mean
[12] = read-out: % Inhibition of control specific binding
[13] = single replicates 1 and 2, 0.1 µM
[14] = single replicates 1 and 2, read-out: % Of control specific binding

T8 sequence (P20309 whole entry): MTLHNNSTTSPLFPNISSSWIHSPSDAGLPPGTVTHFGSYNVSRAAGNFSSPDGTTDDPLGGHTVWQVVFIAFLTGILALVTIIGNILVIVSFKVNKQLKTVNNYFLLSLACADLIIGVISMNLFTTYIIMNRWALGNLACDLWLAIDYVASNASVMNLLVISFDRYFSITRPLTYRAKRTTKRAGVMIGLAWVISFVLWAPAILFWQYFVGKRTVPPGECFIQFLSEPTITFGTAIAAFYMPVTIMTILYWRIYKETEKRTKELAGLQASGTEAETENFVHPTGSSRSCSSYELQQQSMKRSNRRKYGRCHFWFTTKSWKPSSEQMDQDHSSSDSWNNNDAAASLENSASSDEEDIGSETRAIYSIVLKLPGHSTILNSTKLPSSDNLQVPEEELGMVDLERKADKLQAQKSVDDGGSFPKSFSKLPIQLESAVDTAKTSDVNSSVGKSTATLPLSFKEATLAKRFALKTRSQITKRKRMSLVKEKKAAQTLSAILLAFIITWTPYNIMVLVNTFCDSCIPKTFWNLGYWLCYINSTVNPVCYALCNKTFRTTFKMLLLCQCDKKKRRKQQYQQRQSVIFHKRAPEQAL
T4 sequence (Q13255 19-1194): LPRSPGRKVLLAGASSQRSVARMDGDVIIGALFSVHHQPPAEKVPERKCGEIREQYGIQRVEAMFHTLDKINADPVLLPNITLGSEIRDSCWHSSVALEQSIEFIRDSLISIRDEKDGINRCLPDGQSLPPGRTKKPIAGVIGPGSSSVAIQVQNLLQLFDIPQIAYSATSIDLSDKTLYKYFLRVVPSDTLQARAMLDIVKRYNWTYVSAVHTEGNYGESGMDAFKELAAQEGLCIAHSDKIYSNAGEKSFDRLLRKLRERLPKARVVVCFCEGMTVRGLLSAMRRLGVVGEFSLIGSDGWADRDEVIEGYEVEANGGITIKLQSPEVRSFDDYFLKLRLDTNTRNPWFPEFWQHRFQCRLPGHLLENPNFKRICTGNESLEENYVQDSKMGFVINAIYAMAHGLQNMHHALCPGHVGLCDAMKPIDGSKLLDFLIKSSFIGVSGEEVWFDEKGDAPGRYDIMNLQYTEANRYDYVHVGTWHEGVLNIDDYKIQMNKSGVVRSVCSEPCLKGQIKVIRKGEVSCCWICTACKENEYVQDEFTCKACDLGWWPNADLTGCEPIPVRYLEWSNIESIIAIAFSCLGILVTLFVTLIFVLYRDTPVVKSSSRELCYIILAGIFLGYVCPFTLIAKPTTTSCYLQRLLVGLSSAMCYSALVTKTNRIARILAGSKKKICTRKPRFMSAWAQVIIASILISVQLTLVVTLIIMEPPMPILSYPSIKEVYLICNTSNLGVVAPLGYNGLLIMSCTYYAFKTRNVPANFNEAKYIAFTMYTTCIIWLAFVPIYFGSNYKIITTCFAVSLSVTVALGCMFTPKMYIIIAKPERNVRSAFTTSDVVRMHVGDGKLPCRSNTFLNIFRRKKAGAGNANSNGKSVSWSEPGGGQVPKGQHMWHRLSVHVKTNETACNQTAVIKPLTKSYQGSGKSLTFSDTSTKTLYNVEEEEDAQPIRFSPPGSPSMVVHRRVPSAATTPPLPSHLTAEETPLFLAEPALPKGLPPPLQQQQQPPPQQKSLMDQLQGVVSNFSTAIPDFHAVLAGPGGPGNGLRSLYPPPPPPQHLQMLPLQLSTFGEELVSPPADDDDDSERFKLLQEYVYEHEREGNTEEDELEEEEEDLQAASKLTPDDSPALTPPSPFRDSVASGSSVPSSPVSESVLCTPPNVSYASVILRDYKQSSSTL
T3 sequence (P07550 whole entry): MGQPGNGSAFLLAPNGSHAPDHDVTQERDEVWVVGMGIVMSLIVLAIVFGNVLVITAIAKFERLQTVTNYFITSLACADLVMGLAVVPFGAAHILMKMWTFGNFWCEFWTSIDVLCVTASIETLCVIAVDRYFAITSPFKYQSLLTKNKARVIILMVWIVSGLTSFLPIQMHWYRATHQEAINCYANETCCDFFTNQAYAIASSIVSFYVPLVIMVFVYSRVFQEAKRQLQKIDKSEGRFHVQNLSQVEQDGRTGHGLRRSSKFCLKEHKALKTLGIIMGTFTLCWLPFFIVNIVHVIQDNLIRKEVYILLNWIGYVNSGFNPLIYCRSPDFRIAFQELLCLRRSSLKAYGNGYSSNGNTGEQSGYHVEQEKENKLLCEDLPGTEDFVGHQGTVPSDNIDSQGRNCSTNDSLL
Chain of CCR8 (P51685 whole entry): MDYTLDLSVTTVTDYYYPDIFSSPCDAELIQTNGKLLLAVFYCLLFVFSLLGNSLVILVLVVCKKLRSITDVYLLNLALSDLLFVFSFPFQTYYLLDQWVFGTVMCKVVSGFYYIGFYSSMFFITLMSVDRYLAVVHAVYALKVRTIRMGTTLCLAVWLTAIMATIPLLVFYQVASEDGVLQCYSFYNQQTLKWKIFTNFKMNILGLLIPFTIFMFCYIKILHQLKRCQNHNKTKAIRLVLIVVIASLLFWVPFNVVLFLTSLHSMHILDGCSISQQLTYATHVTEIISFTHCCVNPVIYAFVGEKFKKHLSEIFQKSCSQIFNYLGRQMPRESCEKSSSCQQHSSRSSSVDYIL
T2 sequence (P08588 whole entry): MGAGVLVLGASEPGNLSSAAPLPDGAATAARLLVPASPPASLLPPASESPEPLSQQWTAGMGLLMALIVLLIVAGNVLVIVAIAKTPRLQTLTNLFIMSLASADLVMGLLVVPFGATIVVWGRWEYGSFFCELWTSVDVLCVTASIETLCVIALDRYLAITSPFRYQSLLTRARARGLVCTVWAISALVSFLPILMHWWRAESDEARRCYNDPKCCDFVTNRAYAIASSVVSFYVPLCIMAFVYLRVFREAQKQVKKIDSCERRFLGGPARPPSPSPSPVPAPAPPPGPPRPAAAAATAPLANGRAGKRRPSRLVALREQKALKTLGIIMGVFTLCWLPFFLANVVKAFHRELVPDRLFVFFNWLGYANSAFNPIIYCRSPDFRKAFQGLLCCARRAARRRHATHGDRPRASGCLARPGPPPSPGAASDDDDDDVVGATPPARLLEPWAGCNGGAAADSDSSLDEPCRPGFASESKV

remaining activity at 0.1 µM [1, 11]: 99.9% | inhibition at 0.1 µM [1, 12]: 0% | % Of control specific binding [1, 13]: 95.6% | remaining activity at 0.1 µM [1, 14]: 104% | remaining activity at 0.1 µM [2, 11]: 91.5% | inhibition at 0.1 µM [2, 12]: 9% | % Of control specific binding [2, 13]: 88.9% | remaining activity at 0.1 µM [2, 14]: 94% | remaining activity at 0.1 µM [3, 11]: 102% | inhibition at 0.1 µM [3, 12]: -2% | % Of control specific binding [3, 13]: 108.1% | remaining activity at 0.1 µM [3, 14]: 95.8% | remaining activity at 0.1 µM [4, 11]: 114% | inhibition at 0.1 µM [4, 12]: -14% | % Of control specific binding [4, 13]: 103.5% and 124.2% | remaining activity at 0.1 µM [5, 11]: 97.3% | inhibition at 0.1 µM [5, 12]: 3% | % Of control specific binding [5, 13]: 98.7% | remaining activity at 0.1 µM [5, 14]: 96% | remaining activity at 0.1 µM [6, 11]: 108% | inhibition at 0.1 µM [6, 12]: -8% | % Of control specific binding [6, 13]: 109% | remaining activity at 0.1 µM [6, 14]: 108% | remaining activity at 0.1 µM [7, 11]: 108% | inhibition at 0.1 µM [7, 12]: -8% | % Of control specific binding [7, 13]: 110.2% | remaining activity at 0.1 µM [7, 14]: 105% | remaining activity at 0.1 µM [8, 11]: 106% | inhibition at 0.1 µM [8, 12]: -6% | % Of control specific binding [8, 13]: 110.4% | remaining activity at 0.1 µM [8, 14]: 101% | % Inhibition of control specific binding [9]: -28% | % Of control specific binding, Mean ([9]; mean of 2): 128.2% | % Of control specific binding [9, 13]: 120.7% and 135.7% | Agonist Response (% of Control) ([10]; antagonist effect, 100 nM, single replicates 1st and 2nd, 0.1 µM): 116.9% and 80.2% | inhibition at 0.1 µM ([10]; read-out: % Inhibition of control agonist response): 2% | activity at 0.1 µM ([10]; read-out: Agonist Response (% of Control), Mean, antagonist effect, 100 nM, mean of 2): 98.5%
SMILES: Cc1ccc(-c2nnc(SCC(=O)Nc3nccs3)[nH]2)cc1 [Compound 9]
